Usually inhibition stands for how much of the control response was suppressed.

Assay [1] deals with T1, DNA (cytosine-5)-methyltransferase 3A (Homo sapiens, UniProt Q9Y6K1). Briefly: Inhibition of human DNMT3A catalytic domain using AdoMet assessed as reduction of methylation in 5'-biotin/3' 6-carboxyfluorescein labeled DNA duplex at CpG site at 10 uM after 1 hr by fluorescence assay relative to control.
The target in assay [2] is T2, DNA (cytosine-5)-methyltransferase 1 (Homo sapiens, UniProt P26358). Briefly: Inhibition of full length His-tagged human DNMT1 using SAM/[methyl-3H]SAM assessed as reduction of methylation in biotinylated hemimethylated DNA duplex at 32 uM after 1 hr by scintillation counting method relative to control.
In assay [3] the target is T2, DNA (cytosine-5)-methyltransferase 1. Briefly: Inhibition of full length His-tagged human DNMT1 using SAM/[methyl-3H]SAM assessed as reduction of methylation in biotinylated hemimethylated DNA duplex at 100 uM after 1 hr by scintillation counting method relative to control.
In assay [4] the target is T1, DNA (cytosine-5)-methyltransferase 3A. Briefly: Inhibition of human DNMT3A catalytic domain using AdoMet assessed as reduction of methylation in 5'-biotin/3' 6-carboxyfluorescein labeled DNA duplex at CpG site at 32 uM after 1 hr by fluorescence assay relative to control.

T2 sequence (P26358 whole entry): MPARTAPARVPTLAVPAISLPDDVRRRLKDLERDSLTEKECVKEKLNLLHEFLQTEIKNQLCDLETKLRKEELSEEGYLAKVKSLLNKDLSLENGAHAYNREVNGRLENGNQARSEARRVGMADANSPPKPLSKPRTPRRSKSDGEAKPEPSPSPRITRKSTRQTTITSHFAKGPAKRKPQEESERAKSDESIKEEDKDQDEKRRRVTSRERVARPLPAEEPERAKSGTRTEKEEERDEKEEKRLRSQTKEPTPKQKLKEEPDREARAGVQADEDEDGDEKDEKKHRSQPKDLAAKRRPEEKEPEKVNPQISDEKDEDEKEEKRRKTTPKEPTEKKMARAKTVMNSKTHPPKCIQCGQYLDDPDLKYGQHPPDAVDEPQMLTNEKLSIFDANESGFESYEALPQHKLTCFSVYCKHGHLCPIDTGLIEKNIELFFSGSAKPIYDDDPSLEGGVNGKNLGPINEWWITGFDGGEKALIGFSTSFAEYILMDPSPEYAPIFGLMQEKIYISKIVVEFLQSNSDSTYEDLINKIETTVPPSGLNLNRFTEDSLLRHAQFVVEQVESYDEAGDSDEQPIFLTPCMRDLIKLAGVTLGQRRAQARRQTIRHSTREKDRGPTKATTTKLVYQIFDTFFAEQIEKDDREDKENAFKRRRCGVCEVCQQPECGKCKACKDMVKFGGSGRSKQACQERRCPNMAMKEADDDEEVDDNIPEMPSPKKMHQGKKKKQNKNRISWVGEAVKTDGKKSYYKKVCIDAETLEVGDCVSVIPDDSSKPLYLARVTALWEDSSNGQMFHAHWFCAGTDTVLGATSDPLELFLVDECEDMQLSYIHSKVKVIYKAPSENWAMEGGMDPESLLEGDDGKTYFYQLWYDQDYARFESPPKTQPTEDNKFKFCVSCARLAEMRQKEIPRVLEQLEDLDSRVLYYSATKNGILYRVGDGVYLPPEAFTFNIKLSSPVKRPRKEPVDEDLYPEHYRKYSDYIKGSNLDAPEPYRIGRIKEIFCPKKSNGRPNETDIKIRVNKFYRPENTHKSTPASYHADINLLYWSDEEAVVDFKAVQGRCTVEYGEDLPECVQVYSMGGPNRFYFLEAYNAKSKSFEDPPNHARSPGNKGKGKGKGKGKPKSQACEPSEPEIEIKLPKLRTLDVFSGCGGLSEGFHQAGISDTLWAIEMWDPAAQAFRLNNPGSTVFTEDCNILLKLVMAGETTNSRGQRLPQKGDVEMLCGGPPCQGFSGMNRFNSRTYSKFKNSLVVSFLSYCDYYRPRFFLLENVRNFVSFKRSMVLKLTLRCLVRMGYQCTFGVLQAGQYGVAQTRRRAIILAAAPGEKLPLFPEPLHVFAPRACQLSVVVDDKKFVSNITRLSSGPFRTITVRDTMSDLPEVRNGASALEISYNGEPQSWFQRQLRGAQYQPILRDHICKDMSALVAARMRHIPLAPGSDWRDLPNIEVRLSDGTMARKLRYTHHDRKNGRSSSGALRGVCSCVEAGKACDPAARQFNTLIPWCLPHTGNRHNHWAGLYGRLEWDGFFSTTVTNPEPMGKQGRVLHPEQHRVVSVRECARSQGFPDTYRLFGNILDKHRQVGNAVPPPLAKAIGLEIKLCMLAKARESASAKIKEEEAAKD
T1 sequence (Q9Y6K1 whole entry, looked up, the tested form may be a part): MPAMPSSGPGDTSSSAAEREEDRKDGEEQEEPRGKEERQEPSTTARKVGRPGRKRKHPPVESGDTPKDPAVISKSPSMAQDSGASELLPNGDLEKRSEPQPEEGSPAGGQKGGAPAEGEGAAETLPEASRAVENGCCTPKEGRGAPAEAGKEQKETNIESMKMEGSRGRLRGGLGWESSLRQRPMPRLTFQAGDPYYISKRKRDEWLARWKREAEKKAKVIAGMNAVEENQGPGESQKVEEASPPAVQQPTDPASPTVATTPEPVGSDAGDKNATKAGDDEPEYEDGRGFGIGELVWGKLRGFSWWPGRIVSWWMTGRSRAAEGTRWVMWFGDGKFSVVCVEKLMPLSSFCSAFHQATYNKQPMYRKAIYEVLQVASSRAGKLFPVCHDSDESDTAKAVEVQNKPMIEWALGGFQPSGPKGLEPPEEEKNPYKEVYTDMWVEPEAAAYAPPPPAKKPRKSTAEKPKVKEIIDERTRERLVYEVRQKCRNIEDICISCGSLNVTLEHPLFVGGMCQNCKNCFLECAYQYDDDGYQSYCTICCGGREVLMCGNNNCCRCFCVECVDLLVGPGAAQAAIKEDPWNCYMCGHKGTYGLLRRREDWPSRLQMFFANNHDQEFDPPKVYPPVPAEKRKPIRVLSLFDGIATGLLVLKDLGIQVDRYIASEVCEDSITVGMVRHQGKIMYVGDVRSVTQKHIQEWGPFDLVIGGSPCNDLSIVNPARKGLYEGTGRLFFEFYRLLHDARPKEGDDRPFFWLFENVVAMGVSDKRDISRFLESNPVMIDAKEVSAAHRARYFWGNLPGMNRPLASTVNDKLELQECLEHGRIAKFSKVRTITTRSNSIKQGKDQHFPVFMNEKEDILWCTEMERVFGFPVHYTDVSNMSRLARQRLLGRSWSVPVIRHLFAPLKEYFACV

For `Cc1cc(NCCN2CCC(COc3ccc4c(NCCCc5ccccc5)ncnc4c3)CC2)c2cccc(C)c2n1`, the inhibition in assay [1] is 81%; in assay [2], 33%; in assay [3] it was 99%; in assay [4] it was 82%.
On the same counts, the results for `c1ccc(CCCNc2ncnc3cc(OCC4CCN(CCNc5cccc6ncccc56)CC4)ccc23)cc1` are 50%, 0%, 0% and 60%.
For `CN(C)c1ccc(NCCN2CCC(COc3ccc4c(NCCCc5ccccc5)ncnc4c3)CC2)c2ccccc12`, in that order: 66%, 8%, 15% and 77%.
For `NS(=O)(=O)c1ccc(CCNc2ncnc3cc(OCC4CCN(CCNc5ccnc6ccccc56)CC4)ccc23)cc1`, in that order: 0%, 59%, 100% and 93%.
For `O=[N+]([O-])c1ccc(CCNc2ncnc3cc(OCC4CCN(CCNc5ccnc6ccccc56)CC4)ccc23)cc1`, the inhibition in assay [1] amounted to 54%; in assay [2], 0%; in assay [3], 72%; in assay [4], 74%.
For `COCn1ccc(NCCNCCCOc2ccc3c(NCCCc4ccccc4)ncnc3c2)nc1=O`, in that order: 0%, 0%, 0% and 0%.
Regarding `Cc1cc(Nc2ccc(NC(=O)c3ccc(Nc4ccnc5ccccc45)cc3)cc2)nc(N)n1`, the inhibition in assay [1] worked out at 70%; in assay [4], 72%.
As for `Oc1cc2nccc(NCCN3CCC(COc4ccc5c(NCCCc6ccccc6)ncnc5c4)CC3)c2cc1O`, the inhibition in assay [1] is 66%; in assay [2] it was 36%; in assay [3] it was 81%; in assay [4], 93%.
On the same counts, the results for `c1ccc(CCCNc2ncnc3cc(OCC4CCN(c5ccnc6ccccc56)CC4)ccc23)cc1` are 0%, 0%, 6% and 0%.
On to `Cc1cc(NCCN2CCC(COc3ccc4c(NCCCc5ccccc5)ncnc4c3)CC2)ccn1`, for which the inhibition in assay [1] came out at 26%; in assay [2], 13%; in assay [3], 55%; in assay [4], 58%.
As for `Clc1ccc2c(NCCN3CCC(COc4ccc5c(NCCCc6ccccc6)ncnc5c4)CC3)ccnc2c1`, the inhibition is 70% in assay [1], 33% in assay [2], 79% in assay [3] and 62% in assay [4].
For `COCn1ccc(NCCN2CCC(COc3ccc4c(NCCCc5ccccc5)ncnc4c3)CC2)nc1=O`, the inhibition in assay [1] worked out at 10%; in assay [2] it was 0%; in assay [3], 11%; in assay [4], 44%.
For the molecule `c1ccc(CCCNc2ncnc3cc(OCCN4CCN(CCNc5ccnc6ccccc56)CC4)ccc23)cc1`, the inhibition in assay [1] amounted to 37%; in assay [2], 0%; in assay [3], 83%; in assay [4], 67%.
For the molecule `c1ccc(CCCNc2ncnc3cc(OCC4CCN(CCNc5ccc6ccccc6c5)CC4)ccc23)cc1`, the inhibition in assay [1], in assay [2], in assay [3] and in assay [4] was 0% throughout.
On to `c1ccc(CCCNc2ncnc3cc(OCC4CCN(CCNc5cnc6ccccc6c5)CC4)ccc23)cc1`, for which the inhibition in assay [1] is 38%; in assay [2] it was 0%; in assay [3], 12%; in assay [4] it was 45%.
Consider `Fc1ccc2nccc(NCCN3CCC(COc4ccc5c(NCCCc6ccccc6)ncnc5c4)CC3)c2c1`, for which the inhibition stood at 0% in assay [1], 0% in assay [2], 79% in assay [3] and 82% in assay [4].
As to `Nc1ccc(NCCN2CCC(COc3ccc4c(NCCCc5ccccc5)ncnc4c3)CC2)cc1`, the inhibition in assay [1] came to 37%; in assay [2], 0%; in assay [3] it was 0%; in assay [4], 65%.
On to `Cn1ccc2cc(NCCN3CCC(COc4ccc5c(NCCCc6ccccc6)ncnc5c4)CC3)ccc21`, for which the inhibition in assay [1] came out at 74%; in assay [2] it was 21%; in assay [3], 50%; in assay [4], 90%.
On the same counts, the results for `CC(C)c1ccc(CCNc2ncnc3cc(OCC4CCN(CCNc5ccnc6ccccc56)CC4)ccc23)cc1` are 53%, 0%, 8% and 83%.
On the same counts, the results for `c1ccc(CCCNc2ncnc3cc(OCC4CCN(CCNc5ccc6ncccc6c5)CC4)ccc23)cc1` are 47%, 0%, 16% and 60%.
On the same counts, the results for `c1ccc(CN2CCN(CCNc3ncnc4cc(OCC5CCN(CCNc6ccnc7ccccc67)CC5)ccc34)CC2)cc1` are 62%, 0%, 71% and 88%.
On to `c1ccc(CCCNc2ncnc3cc(OCC4CCN(CCNc5cccc6cnccc56)CC4)ccc23)cc1`, for which the inhibition in assay [1], in assay [2], in assay [3] and in assay [4] was 0% in each case.
Consider `CN(CCN1CCC(COc2ccc3c(NCCCc4ccccc4)ncnc3c2)CC1)c1ccnc2ccccc12`, for which the inhibition in assay [1] amounted to 53%; in assay [2] it was 10%; in assay [3] it was 57%; in assay [4], 66%.
For `FC(F)(F)c1cc(NCCN2CCC(COc3ccc4c(NCCCc5ccccc5)ncnc4c3)CC2)c2ccccc2n1`, in that order: 0%, 0%, 13% and 0%.
For `c1ccc(CCCNc2ncnc3cc(OCC4CCN(CCNc5cncc6ccccc56)CC4)ccc23)cc1`, in that order: 35%, 0%, 0% and 49%.
Consider `Clc1ccccc1CCNc1ncnc2cc(OCC3CCN(CCNc4ccnc5ccccc45)CC3)ccc12`, for which the inhibition in assay [1] amounted to 10%; in assay [2] it was 42%; in assay [3], 97%; in assay [4], 100%.
Regarding `COc1ccc2c(NCCN3CCC(COc4ccc5c(NCCCc6ccccc6)ncnc5c4)CC3)ccnc2c1`, the inhibition stood at 70% in assay [1], 35% in assay [2], 90% in assay [3] and 80% in assay [4].
On the same counts, the results for `c1ccc(CNc2ncnc3cc(OCC4CCN(CCNc5ccnc6ccccc56)CC4)ccc23)cc1` are 43%, 22%, 26% and 81%.
On the same counts, the results for `CCCNc1ncnc2cc(OCC3CCN(CCNc4ccnc5ccccc45)CC3)ccc12` are 28%, 0%, 95% and 69%.
On the same counts, the results for `Nc1ncnc2cc(OCC3CCN(CCNc4ccnc5ccccc45)CC3)ccc12` are 16%, 0%, 99% and 68%.
In the case of `O=c1c2ccc(OCC3CCN(CCNc4ccnc5ccccc45)CC3)cc2ncn1CCCc1ccccc1`, the inhibition was 65% in assay [1], 0% in assay [2], 90% in assay [3] and 99% in assay [4].
For `Nc1ccc(CCNc2ncnc3cc(OCC4CCN(CCNc5ccnc6ccccc56)CC4)ccc23)cc1`, in that order: 68%, 59%, 97% and 96%.
Turning to `c1ccc(CCCNc2ncnc3cc(OCC4CCN(CCNc5ccncc5)CC4)ccc23)cc1`, the inhibition in assay [1] stood at 47%; in assay [3], 34%; in assay [4], 72%.
For the molecule `FC(F)(F)c1ccc2c(NCCN3CCC(COc4ccc5c(NCCCc6ccccc6)ncnc5c4)CC3)ccnc2c1`, the inhibition worked out at 0% in assay [1], 0% in assay [2], 48% in assay [3] and 0% in assay [4].
In the case of `c1ccc(CN2CCC(Nc3ncnc4cc(OCC5CCN(CCNc6ccnc7ccccc67)CC5)ccc34)CC2)cc1`, the inhibition is 72% in assay [1], 65% in assay [2], 81% in assay [3] and 93% in assay [4].
On the same counts, the results for `Oc1ccc2c(NCCN3CCC(COc4ccc5c(NCCCc6ccccc6)ncnc5c4)CC3)ccnc2c1` are 74%, 0%, 59% and 72%.
Turning to `c1ccc(CCCNc2ncnc3cc(OCCCNCCNc4ccnc5ccccc45)ccc23)cc1`, the inhibition in assay [1] came to 59%; in assay [2], 0%; in assay [3] it was 90%; in assay [4], 85%.

The values above are taken from ChEMBL document CHEMBL4014314, “Rational Design of Bisubstrate-Type Analogues as Inhibitors of DNA Methyltransferases in Cancer Cells” (J Med Chem, 2017).
